One data set concerns HT-29. Description: cells. On the procedure: (§1) HUVECs (human umbilical vein endothelial cells) were cultured in EGM™-2 BulletKit™ supplemented with SingleQuots™ (supplements: growth factors, cytokines, antibiotics; Lonza) and 10% FBS (catalog no. FFBS-500; Scientifix). Both HT-29 and MCF-7 cells were cultured in 10% FBS/DMEM (Dulbecco’s Modified Eagle Medium) with 1% penicillin–streptomycin (5000 U/mL; Life Technologies), whereas PC3 cells (prostate cancer cells) were cultured in 10% FBS/RPMI (Roswell Park Memorial Institute) 1640 with 1% penicillin–streptomycin (5000 U/mL; Life Technologies). All cells were maintained at 37 °C in 5% CO2.
(§2) Cell cytotoxicity and proliferation assays were performed using similar methods to those described by Chan et al.[45]. All cells were maintained using the media conditions described above, and passages two to ten were used for all cell lines. For all cell lines, 5.0 × 10^3 cells/well (100 μL) and 1.5 × 10^3 cells/well (100 μL) were used for cell cytotoxicity and cell proliferation assays, respectively. All peptides (10 μL, at final concentrations ranging from 0.05–100 μM) and drugs, which included cilengitide, octreotide and sunitinib (at final concentrations ranging from 0.00001–100 μM), were used in both assays. Triton X-100 (0.1% (v/v); 10 μL) was used as a positive control. Cells were treated with fresh media the day after plating, before the addition of peptides, followed by a subsequent 2-h and 48-h incubation for cell cytotoxicity and cell proliferation, respectively. After different incubation periods, 3-(4, 5-dimethylthiazolyl-2)-2,5-diphenyltetrazolium bromide (MTT) (10 μL; 5 mg/mL in PBS) was added, and cells were incubated for a further 4 h. The supernatant was then removed and 100 μL DMSO added to solubilize formazan salts. Experiments were performed in triplicate. Cell numbers were recorded at 600 nm. All data represent average mean ± SD.

Another data set relates to HUVEC. Description: cells. On the procedure: as §1, §2
Another data set deals with MCF-7. Description: cells. On the procedure:
as §1, §2

The subject of the next data set is PC3. Description: cells. On the procedure:
as §1, §2

Data set [1] is described as follows: Peptide stability assay in human serum. The conditions noted are these: for stability in human serum over 24 h: RP-HPLC peak height at 215 nm. On the procedure:
Figure 6 Chorionallantoic membrane and stability assays. (A) Comparison of blood vessel count of the linear and grafted peptides. Error bars indicate ± SD (n ≥ 6). […] A one-way ANOVA with Dunnett’s post-test using a multiple comparison test was used for statistical analysis. […] All peptides were compared to 0.3 nM VEGF (highlighted in grey), which is represented as 100% blood vessel growth. […] VEGF was used as the positive control, and octreotide and cilengitide as the negative controls. All images were taken with an original magnification of x16 on an Olympus SZX12 dissecting microscope with a light box. DP capture and DP manager software packages were used during image acquisition. (C) This graph illustrates the percentage of peptide remaining over 24 h in the serum stability assay. […] All data are represented as mean ± SD and were recorded in triplicate. Peptides labeled with an asterisk (*) were tested using the same method except with an additional step – dissolving the centrifuged pellet with 8 M guanidinium chloride before RP-HPLC analysis.
The overall procedures used to assess peptide stability are based on those described previously by Chan et al.[18] and Ji et al.[19]. A peptide concentration of 300 μM was used, and time points taken at 0, 2, 4, 8, 16, and 24 h. The stability of sunitinib was also examined using this method, except an additional step was added after the final centrifugation step, whereby the pellet was dissolved in 8 M guanidine hydrochloride (300 μL) prior to analysis with RP-HPLC; this additional step was adapted from Ji et al.[19]. Supernantants were analyzed on an Agilent RP-HPLC using a linear 1%/min gradient of 0–50% solvent B with a 0.3 mL/min Phenomenex column. Peak height was used for integration of data at 215 nm and each experiment was performed in triplicate.

Setting [2] is: read-out: IC50 ± S.D., 48 hours, HT-29, cell proliferation inhibition, MTT, 48-h incubation, 1.5 × 10^3 cells/well, triplicate, mean ± SD.
[3] abbreviates: read-out: IC50 ± S.D., 48 hours, HUVEC, cell proliferation inhibition, MTT, 48-h incubation, 1.5 × 10^3 cells/well, triplicate, mean ± SD.
The mark [4] stands for this setting: read-out: IC50 ± S.D., 48 hours, MCF-7, cell proliferation inhibition, MTT, 48-h incubation, 1.5 × 10^3 cells/well, triplicate, mean ± SD.
Setting [5] is: read-out: IC50 ± S.D., 48 hours, PC3, cell proliferation inhibition, MTT, 48-h incubation, 1.5 × 10^3 cells/well, triplicate, mean ± SD.
Where [6] appears, read: human serum, 300 μM, 24 h, triplicate.

Read-outs that look alike come from different tables or passages of the source. Bridge positions count the residues as written; N and C are the ends. Square brackets hold non-standard residues; d marks the D form. Ends that are not written are not given here. Peptide text beside a SMILES is read from it.

Turning to `CC[C@H](C)[C@@H]1NC(=O)[C@@H]2CSSC[C@@H]3NC(=O)CNC(=O)[C@H](Cc4ccccc4)NC(=O)[C@@H]4CCCN4C(=O)[C@H](CCC(N)=O)NC(=O)[C@H](CC(N)=O)NC(=O)[C@H](CC(C)C)NC(=O)[C@H](Cc4c[nH]cn4)NC(=O)[C@H](Cc4ccc(O)cc4)NC(=O)CNC(=O)[C@@H]4CSSC[C@H](NC(=O)[C@H](CC(=O)O)NC(=O)[C@H](CO)NC(=O)[C@H](CC(=O)O)NC(=O)[C@H](CCCNC(=N)N)NC(=O)[C@H](CCCNC(=N)N)NC(=O)[C@H](CSSC[C@H](NC1=O)C(=O)N[C@@H](CCCNC(=N)N)C(=O)N[C@@H](Cc1ccc(O)cc1)C(=O)N[C@H](Cc1c[nH]c5ccccc15)C(=O)N[C@@H](CCCCN)C(=O)N[C@@H](C(C)C)C(=O)N4)NC(=O)[C@H](CCCCN)NC(=O)[C@H](CCCCN)NC(=O)[C@H](CC(C)C)NC(=O)[C@H]([C@@H](C)CC)NC(=O)[C@H](CCCCN)NC(=O)[C@@H]1CCCN1C3=O)C(=O)N1CCC[C@H]1C(=O)NCC(=O)N[C@@H](C)C(=O)N2` [MCoAA-02] (cyclo(ACICRY[dW]KVCGYHLNQPFGCPKILKKCRRDSDCPG); disulfide 2-20, 4-27, 10-33), the IC50 – broadly, the concentration needed to halve the response being measured – is 19.75 ± 0.07 µM in the data set with HT-29 (setting [2]), 27.06 ± 0.06 µM with HUVEC (setting [3]), more than 100 µM in the data set on MCF-7 (setting [4]) and 35.44 ± 0.13 µM in the data set on PC3 (setting [5]). For the same compound, in data set [1] (setting [6]), the “stability in human serum over 24 h” value is given as “stable”. In addition, the “percentage remaining in human serum at 24 h, excess over sunitinib” value in data set [1] (human serum, 300 μM, 24 h, pellet dissolved in 8 M guanidine hydrochloride, RP-HPLC 215 nm, triplicate) is “approximately 20%”. In data set [1] (human, serum), the share remaining – broadly, the share of the starting amount still present when the sample was taken – at 24 h, 300 μM was more than 75%.
For the compound `CC[C@H](C)[C@@H]1NC(=O)[C@@H]2CCCN2C(=O)[C@@H]2CCCN2C(=O)[C@H]([C@@H](C)CC)NC(=O)[C@H](CO)NC(=O)[C@H](CCCCN)NC(=O)[C@H]([C@@H](C)O)NC(=O)[C@@H]2CSSC[C@H](NC1=O)C(=O)N[C@@H](CCCNC(=N)N)C(=O)N[C@@H](Cc1ccccc1)C(=O)N[C@H](Cc1c[nH]c3ccccc13)C(=O)N[C@@H](CCCCN)C(=O)N[C@@H]([C@@H](C)O)C(=O)N[C@@H](Cc1c[nH]c3ccccc13)C(=O)N2` [SFTI-SST-02] (cyclo(CRF[dW]KTWCTKSIPPI); disulfide 1-8), the IC50 with HT-29 (setting [2]) was 43.29 ± 0.04 µM; in the data set on HUVEC (setting [3]), more than 100 µM; with MCF-7 (setting [4]), 55.13 ± 0.07 µM; in the data set with PC3 (setting [5]) it was more than 100 µM.
`CC[C@H](C)[C@@H]1NC(=O)[C@H](CCCNC(=N)N)NC(=O)[C@H](CCCNC(=N)N)NC(=O)[C@H](CCCNC(=N)N)NC(=O)[C@H](CCCCN)NC(=O)[C@H](CCCNC(=N)N)NC(=O)[C@H](CCCNC(=N)N)NC(=O)[C@@H]2CSSC[C@H](NC1=O)C(=O)N[C@@H](Cc1ccccc1)C(=O)N1CCC[C@H]1C(=O)N[C@@H](CC(=O)O)C(=O)NCC(=O)N[C@@H](CCCNC(=N)N)C(=O)N2` [SFTI-polyR-L1] (cyclo(CFPDGRCRRKRRRI); disulfide 1-7): the IC50 in the data set with HT-29 (setting [2]) is 82.27 ± 0.13 µM; with HUVEC (setting [3]) it was more than 100 µM; in the data set with MCF-7 (setting [4]), 28.72 ± 0.15 µM; with PC3 (setting [5]) it was more than 100 µM.
In the case of `CC[C@H](C)[C@@H]1NC(=O)[C@@H]2CCCN2C(=O)[C@@H]2CCCN2C(=O)[C@H]([C@@H](C)CC)NC(=O)[C@H](CO)NC(=O)[C@H](CCCCN)NC(=O)[C@H]([C@@H](C)O)NC(=O)[C@@H]2CSSC[C@H](NC1=O)C(=O)N[C@@H](CCCNC(=N)N)C(=O)N[C@@H](CCCNC(=N)N)C(=O)N[C@@H](CCCCN)C(=O)N[C@@H](CCCNC(=N)N)C(=O)N[C@@H](CCCNC(=N)N)C(=O)N[C@@H](CCCNC(=N)N)C(=O)N2` [SFTI-polyR-L2] (cyclo(CRRKRRRCTKSIPPI); disulfide 1-8), the IC50 was more than 100 µM in the data set with HT-29 (setting [2]), more than 100 µM in the data set on HUVEC (setting [3]), 41.84 ± 0.07 µM with MCF-7 (setting [4]) and more than 100 µM in the data set with PC3 (setting [5]).
Consider `CC(C)[C@H](NC(=O)[C@H](CCCCN)NC(=O)[C@@H](Cc1c[nH]c2ccccc12)NC(=O)[C@@H](N)Cc1ccc(O)cc1)C(=O)O` [SST-01, reference compound] (H-Y[dW]KV-OH; N-terminus assumed), for which the IC50 in the data set on HT-29 (4 h) is more than 100 µM; with HUVEC (4 h), 57.54 ± 0.04 µM; in the data set with MCF-7 (4 h) it was more than 100 µM; in the data set with PC3 (4 h), more than 100 µM. Moreover, in data set [1] (setting [6]), the “stability in human serum over 24 h” value is “more stable than PEDF”.
In the case of `C[C@@H](O)[C@H](NC(=O)[C@H](CCCCN)NC(=O)[C@@H](Cc1c[nH]c2ccccc12)NC(=O)[C@H](Cc1ccccc1)NC(=O)[C@@H](N)CCCNC(=N)N)C(=O)N[C@@H](Cc1c[nH]c2ccccc12)C(=O)O` [SST-02, reference compound] (H-RF[dW]KTW-OH), the IC50 in the data set with HT-29 (4 h), in the data set on HUVEC (4 h), in the data set with MCF-7 (4 h) and in the data set on PC3 (4 h) was more than 100 µM each time.
On to YHLNQPF [PEDF, reference compound], for which the IC50 in the data set on HT-29 (setting [2]) is more than 100 µM; in the data set with HUVEC (setting [3]), 19.4 ± 0.08 µM; in the data set on MCF-7 (setting [4]), more than 100 µM; in the data set on PC3 (setting [5]), more than 100 µM.

The values are drawn from PMC5062114, “Dual-targeting anti-angiogenic cyclic peptides as potential drug leads for cancer therapy” (Scientific Reports, 2016).
